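All cell lines were grown in 96-well plates and treated with compound for 48 hours. The concentration for 50% growth inhibition is given as GI50.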 Activity calls are given as the source filed them. Rule as the data show it: active = GI50 up to about 1.1 µM and inactive = higher.
Columns and labels:
Test in all cases: inhibition of tumour cell growth, NCI panel, 48 h
OVCAR-8 = system: OVCAR-8
SN12C = system: SN12C
NCI/ADR-RES = system: NCI/ADR-RES
M14 = system: M14
HOP-62 = system: HOP-62
SW-620 = system: SW-620
IGROV-1 = system: IGROV-1
LOX IMVI = system: LOX IMVI
MCF7 = system: MCF7
UO-31 = system: UO-31
HT-29 = system: HT-29
SF-295 = system: SF-295
UACC-62 = system: UACC-62
HCT-15 = system: HCT-15
SNB-19 = system: SNB-19
HCT-116 = system: HCT-116
UACC-257 = system: UACC-257
SNB-75 = system: SNB-75
MDA-N = system: MDA-N
KM12 = system: KM12

| SMILES | GI50 (OVCAR-8) | GI50 (SN12C) | GI50 (NCI/ADR-RES) | GI50 (M14) | GI50 (HOP-62) | GI50 (SW-620) | GI50 (IGROV-1) | GI50 (LOX IMVI) | GI50 (MCF7) | GI50 (UO-31) | GI50 (HT-29) | GI50 (SF-295) | GI50 (UACC-62) | GI50 (HCT-15) | GI50 (SNB-19) | GI50 (HCT-116) | GI50 (UACC-257) | GI50 (SNB-75) | GI50 (MDA-N) | GI50 (KM12) |
| --- | --- | --- | --- | --- | --- | --- | --- | --- | --- | --- | --- | --- | --- | --- | --- | --- | --- | --- | --- | --- |
| O=C(Cn1c(=O)oc2ccc(C(=O)c3cccc(Cl)c3)cc21)c1ccccc1 | > 100 µM (inactive) | > 100 µM (inactive) | > 100 µM (inactive) | > 100 µM (inactive) | > 100 µM (inactive) | 65.6 µM (inactive) | > 100 µM (inactive) | > 100 µM (inactive) | 87.9 µM (inactive) | 99.8 µM (inactive) | 29.9 µM (inactive) | 44.6 µM (inactive) | > 100 µM (inactive) | 41.2 µM | > 10 µM (inactive) | > 10 µM (inactive) | 19.5 µM (inactive) | 25.1 µM (inactive) |  |  |
| CC(=O)OCC(C)(COC(C)=O)N1C(=O)C2C3c4ccccc4C(c4ccccc43)C2C1=O (stereo not drawn) | > 100 µM (inactive) |  |  | > 100 µM (inactive) |  | > 100 µM (inactive) | > 100 µM (inactive) | > 100 µM (inactive) | > 100 µM (inactive) | > 100 µM (inactive) | > 100 µM (inactive) | > 100 µM (inactive) | > 100 µM (inactive) | > 100 µM | > 100 µM (inactive) | 33 µM (inactive) | > 100 µM (inactive) | 49.7 µM (inactive) | 28.1 µM (inactive) | > 100 µM (inactive) |
| Clc1cc(-c2ccccc2)nc(Nc2nc3ccccc3[nH]2)n1 | 22 µM (inactive) | 28.2 µM (inactive) | 43.5 µM (inactive) | 23.7 µM (inactive) |  | 6.01 µM (inactive) | 14.7 µM (inactive) |  |  | 55 µM (inactive) | 15 µM (inactive) | 37.1 µM (inactive) | 17.7 µM (inactive) | 6.95 µM | 83 µM (inactive) | 25.1 µM (inactive) | 20.6 µM (inactive) | 34.4 µM (inactive) | 18.8 µM (inactive) | 40.2 µM (inactive) |
| C(=C/c1ccc2nc(-c3ccc(/C=C/C=N/NC4=NCCCN4)cc3)cn2c1)/C=N/NC1=NCCCN1 | 17.6 µM (inactive) | > 100 µM (inactive) | 22.1 µM (inactive) | 66.4 µM (inactive) | > 100 µM (inactive) |  | 31.5 µM (inactive) |  |  | > 100 µM (inactive) |  | > 100 µM (inactive) | 30.1 µM (inactive) | > 100 µM | 89.7 µM (inactive) | 6.81 µM (inactive) | 10.6 µM (inactive) | 35.7 µM (inactive) | 43.9 µM (inactive) | 6.31 µM (inactive) |
| CC#CCC1CCC(OCC)=CC1=O (stereo not drawn) | > 100 µM (inactive) | > 100 µM (inactive) |  | > 100 µM (inactive) | > 100 µM (inactive) | > 100 µM (inactive) | > 100 µM (inactive) | > 100 µM (inactive) |  | > 100 µM (inactive) | > 100 µM (inactive) | > 100 µM (inactive) | > 100 µM (inactive) | > 100 µM | > 100 µM (inactive) | > 100 µM (inactive) | > 100 µM (inactive) | > 100 µM (inactive) |  | > 100 µM (inactive) |
| COc1ccc(Br)c(C(=O)N2CCc3ccccc32)c1N | 32.3 µM (inactive) | 41.8 µM (inactive) |  | 32.9 µM (inactive) | 42.3 µM (inactive) | 49.1 µM (inactive) | 70.5 µM (inactive) | 93.1 µM (inactive) |  | 33.8 µM (inactive) | 52 µM (inactive) | 46.2 µM (inactive) | 43.8 µM (inactive) | 29.2 µM | 63 µM (inactive) | 42.2 µM (inactive) | 29.9 µM (inactive) | 26.9 µM (inactive) |  | 34.2 µM (inactive) |
| CN(C)c1ccc(/C=C2\N=C(c3ccccc3)N(c3nc4ccc(Sc5ccccc5)cc4[nH]3)C2=O)cc1 | 43 µM (inactive) | 45.4 µM (inactive) | 25.9 µM (inactive) | 43.6 µM (inactive) | 33.1 µM (inactive) | 34.6 µM (inactive) | 61.5 µM (inactive) | 45.2 µM (inactive) | 30 µM (inactive) | 59.3 µM (inactive) | 32.4 µM (inactive) | 23.6 µM (inactive) | 22.5 µM (inactive) | 36.5 µM | 49.1 µM (inactive) | 36.3 µM (inactive) | 24.3 µM (inactive) | 53.2 µM (inactive) |  | 27.8 µM (inactive) |
| N#Cc1nc(C(CO)N(Cc2ccccc2)C(=O)O)oc1N (stereo not drawn) | > 100 µM (inactive) | > 100 µM (inactive) | > 100 µM (inactive) | > 100 µM (inactive) | > 100 µM (inactive) |  | > 100 µM (inactive) | > 100 µM (inactive) | > 100 µM (inactive) | > 100 µM (inactive) | > 100 µM (inactive) | > 100 µM (inactive) | > 100 µM (inactive) | > 100 µM |  | > 100 µM (inactive) | > 100 µM (inactive) | > 100 µM (inactive) |  | > 100 µM (inactive) |

Reference: ChEMBL document CHEMBL1201862, “PubChem BioAssay data set” (2004)
